Assay [1] has as its system HIV-1 (Gag) gene expression. The note with it: HeLa rtTA-HIV-ΔMls cells; read-out: IC90, HIV-1 (Gag) gene expression (digoxin, published); cited from earlier work.
For assay [2], the system named is host alternative RNA splicing. Set-up: method as in PMID 22456266. The note with it: of 8,175 analyzed, cited from earlier work.
In another assay the test system is SRp20/SRSF3. Description: Immunoblot of SRp20 in HeLa rtTA-HIV-ΔMls cells. The format is cell-based, human. To be noted: 3 d with ~IC50s of CSs. An excerpt:
Figure 4 CSs suppress HIV-1 gene expression by altering viral RNA processing. […] (a,b) CSs induce oversplicing of HIV-1 RNAs (n ≥ 3, mean, s.e.m.). (a) Diagram of the primer positions (arrow heads) used for qRT-PCR. (b) Graph of the relative amount of US (black), SS (white), and MS (gray) HIV-1 RNAs in cells treated with various CSs. (c) Nuclear export of HIV-1 US RNAs in cells is altered by CSs (representative n ≥ 4). HIV-1 US RNAs were localized by FISH after treating HeLa rtTA-HIV(Gag-GFP) cells as described above but with ~IC90s of CSs. Nuclei were stained by DAPI and images captured at 630 × magnification. […] SRp20, Tra2β, and tubulin were analyzed by immunoblot of HeLa rtTA-HIV-ΔMls cells treated as described above except cells of this representative blot were treated 3 d with ~IC50s of CSs. […]
To monitor HIV-1 gene expression or replication, Gag release into cell culture supernatants were assayed by ELISA using a p24^CA antigen capture assay kit (AIDS & Cancer Virus Program, NCI-Frederick, Frederick, MD USA). […] For analysis of HIV-1 and SR protein expression (and phosphorylation states with calf intestinal alkaline phosphatase treatments), cells were lysed and analyzed by western blot as previously outlined. […] Activation of MAPKs was determined by western blot quantitation and calculation of phospho/total protein levels. […]

On to `C[C@H]1O[C@@H](O[C@H]2[C@@H](O)C[C@H](O[C@H]3[C@@H](O)C[C@H](O[C@H]4CC[C@@]5(C)[C@H](CC[C@@H]6[C@@H]5C[C@@H](O)[C@]5(C)[C@@H](C7=CC(=O)OC7)CC[C@]65O)C4)O[C@@H]3C)O[C@@H]2C)C[C@H](O)[C@@H]1O` [Digoxin], for which the IC90 in assay [1] was 100 nM.

For `C[C@H]1O[C@@H](O[C@H]2[C@@H](O)C[C@H](O[C@H]3[C@@H](O)C[C@H](O[C@H]4CC[C@@]5(C)[C@H](CC[C@@H]6[C@@H]5CC[C@]5(C)[C@@H](C7=CC(=O)OC7)CC[C@]65O)C4)O[C@@H]3C)O[C@@H]2C)C[C@H](O)[C@@H]1O` [Digitoxin], the “host splicing events affected” value in assay [2] (q-value = 0, sepscore ≥ 1.0) is 1681 events. For the same molecule, the “host splicing events affected, share of analyzed” value in assay [2] is reported as ~ 20.6%.

Regarding `C[C@]12CC[C@H](O)C[C@H]1CC[C@@H]1[C@@H]2CC[C@]2(C)[C@@H](C3=CC(=O)OC3)CC[C@]12O` [Digitoxigenin], the “mobility of SRp20” value with SRp20/SRSF3 was “increased the mobility”.

These data come from article PMC5770468, “Cardiac glycoside/aglycones inhibit HIV-1 gene expression by a mechanism requiring MEK1/2-ERK1/2 signaling” (Scientific Reports, 2018).
